These are literature values, as cited in publication PMC4207555 (Drug Design, Development and Therapy, 2014).

The subject of data set [1] is tubulin.
Data set [2] concerns P-glycoprotein-expressing cell lines bearing acquired resistance. The following applies: range across P-glycoprotein-expressing cell lines.
For data set [3] the following is noted: humans, over 7 days.
Data set [4] concerns microtubules. Conditions: read-out: stabilization of microtubules against cold-induced depolymerization (concentration producing 50% cell killing).
For data set [5] the following is noted: Phase III clinical studies in a number of tumor types.
For data set [6] the following is noted: rats; ref Sanofi, data on file, 2013.
Data set [7] relates to HID28.
The subject of data set [8] is mCRPC that had progressed on previous docetaxel-based therapy.

Usually logP stands for a log measure of how a compound divides between an organic and an aqueous phase. `CC(=O)O[C@@]12CO[C@@H]1C[C@H](O)[C@@]1(C)C(=O)[C@H](O)C3=C(C)[C@@H](OC(=O)[C@H](O)[C@@H](NC(=O)OC(C)(C)C)c4ccccc4)C[C@@](O)([C@@H](OC(=O)c4ccccc4)[C@H]21)C3(C)C` [Docetaxel, reference compound]: the logP was 3.2. For the same compound, the “lag time to 50% aggregation (reduction in lag time for tubulin assembly)” value in data set [1] was 0 to 0.1 µmol/L. Besides, in data set [2], the Resistance factors was 5–59. In addition, in data set [3], the “administered dose of 14C excreted in the feces” value is on record as 80% and the “administered dose of 14C recovered in the urine” value is reported as “approximately 5%”. Further, in [4], the IC50 is 0.1 to 0.25 µM. Moreover, in data set [5], the “incidence of grade 3/4 sensory neuropathy” value is on record as 0%–7. For the same compound, in data set [6], the “HNLD as single dose” value is 10 mg/kg. Moreover, in data set [7] (HID28, 20 mg/kg, Day 35), the “percentage tumor volume change (treated/control mean tumor volume)” value is recorded as 16.7%.
For `O=C1c2c(O)ccc(O)c2C(=O)c2c(NCCNCCO)ccc(NCCNCCO)c21` [mitoxantrone, reference compound], in data set [8], the prostate-specific antigen response was 17.8% and the “rate of objective tumor response” value was 4.4%. For the same compound, in [8] (plus prednisone/prednisolone), the median overall survival is recorded as 12.7 months and the median progression-free survival was 1.4 months.
Take `CC(=O)O[C@H]1CC[C@@]2(C)C(=CC[C@@H]3[C@@H]2CC[C@]2(C)C(c4cccnc4)=CC[C@@H]32)C1` [abiraterone acetate, reference compound]: the antitumor activity result in data set [7] (HID28, 50 mg/kg orally daily for 21 days) is given as “No antitumor activity”.
